Source: patent publication US6586604B2, “Tricyclic amine derivatives” (Daiichi Pharmaceutical Co., Ltd., priority 1996, dated 2003)
≈ marks a conversion by molar mass, not a printed value.

Experiments:
E. coil, NIHJ = experiment: Antimicrobial activity (MIC), standard method of the Japan Chemotherapeutic Society; type: cell-based; settings: for MIC: read-out: minimum inhibitory concentration (MIC)
Description: (§1) The antimicrobial activity of the compounds according to the present invention was determined in accordance with the standard method specified by the Japan Chemotherapeutic Society.

Pr. Mirabilis, IFO-3849 = experiment: as above; type: cell-based; settings: for MIC: Proteus mirabilis, IFO3849, read-out: minimum inhibitory concentration (MIC)
Description: as §1

Pr. vulgaris, 08601 = experiment: as above; type: cell-based; settings: for MIC: Proteus vulgaris, read-out: minimum inhibitory concentration (MIC)
Description: as §1

Ps. Aeruginosa, 32104 = experiment: as above; type: cell-based; settings: for MIC: Pseudomonas aeruginosa, read-out: minimum inhibitory concentration (MIC)
Description: as §1

Ps. Aeruginosa, 32121 = experiment: as above; type: cell-based; settings: for MIC: Pseudomonas aeruginosa, read-out: minimum inhibitory concentration (MIC)
Description: as §1

[1] = test system: Ps. Maltophilia, 11D-1275; experiment: as above; type: cell-based; settings: for MIC: Stenotrophomonas maltophilia, read-out: minimum inhibitory concentration (MIC)
Description: as §1

S. aureaus, 209P = experiment: as above; type: cell-based; settings: for MIC: read-out: minimum inhibitory concentration (MIC)
Description: as §1

S. aureus, 870307 = experiment: as above; type: cell-based; settings: for MIC: Staphylococcus aureus, read-out: minimum inhibitory concentration (MIC)
Description: as §1

S. epidermidis, 56500 = experiment: as above; type: cell-based; settings: for MIC: Staphylococcus epidermidis, read-out: minimum inhibitory concentration (MIC)
Description: as §1

S. flexneli, 2A 5503 = experiment: as above; type: cell-based; settings: for MIC: read-out: minimum inhibitory concentration (MIC); for minimum inhibitory concentration (MIC): S. flexneli, 2A 5503
Description: as §1

S. pneumoniae, J24 = experiment: as above; type: cell-based; settings: for MIC: Streptococcus pneumoniae, read-out: minimum inhibitory concentration (MIC)
Description: as §1

Ser. Marcescens, 10100 = experiment: as above; type: cell-based; settings: for MIC: Serratia marcescens, read-out: minimum inhibitory concentration (MIC)
Description: as §1

[2] = test system: Str. Faecalis, ATCC-19433; experiment: as above; type: cell-based; settings: for MIC: Enterococcus faecalis, ATCC19433, read-out: minimum inhibitory concentration (MIC)
Description: as §1

Str. Pyogenes, G-36 = experiment: as above; type: cell-based; settings: for MIC: Streptococcus pyogenes, read-out: minimum inhibitory concentration (MIC)
Description: as §1

Structure (SMILES) | MIC (E. coil, NIHJ) [µg/mL] | MIC (Pr. Mirabilis, IFO-3849) [µg/mL] | MIC (Pr. vulgaris, 08601) [µg/mL] | MIC (Ps. Aeruginosa, 32104) [µg/mL] | MIC (Ps. Aeruginosa, 32121) [µg/mL] | MIC [1] [µg/mL] | minimum inhibitory concentration (MIC) (E. coil, NIHJ) | minimum inhibitory concentration (MIC) (Pr. Mirabilis, IFO-3849) [µg/mL] | minimum inhibitory concentration (MIC) (Pr. vulgaris, 08601) | minimum inhibitory concentration (MIC) (Ps. Aeruginosa, 32104) [µg/mL] | minimum inhibitory concentration (MIC) (Ps. Aeruginosa, 32121) [µg/mL] | minimum inhibitory concentration (MIC) [1] [µg/mL] | minimum inhibitory concentration (MIC) (S. aureaus, 209P) | minimum inhibitory concentration (MIC) (S. aureus, 870307) [µg/mL] | minimum inhibitory concentration (MIC) (S. epidermidis, 56500) | minimum inhibitory concentration (MIC) (S. flexneli, 2A 5503) | minimum inhibitory concentration (MIC) (S. pneumoniae, J24) | minimum inhibitory concentration (MIC) (Ser. Marcescens, 10100) [µg/mL] | minimum inhibitory concentration (MIC) [2] [µg/mL] | minimum inhibitory concentration (MIC) (Str. Pyogenes, G-36) | also measured
Nc1c(F)c(N2CC3CC4CC4(N)C3C2)c(F)c2c1c(=O)c(C(=O)O)cn2C1CC1 (stereo not drawn) [Example 1, 5-Amino-7-(1-amino-4-azatricyclo[6.1.0.0^2,6]-nonan-4-yl)-1-cyclopropyl-6,8-difluoro-1,4-dihydro-4-oxoquinoline-3-carboxylic Acid] | ≤ 0.003 | 0.05 (≈ 0.12 µM) | 0.1 (≈ 0.24 µM) | 0.2 (≈ 0.48 µM) | 0.2 (≈ 0.48 µM) | 0.05 (≈ 0.12 µM) |  |  |  |  |  |  |  |  |  |  |  |  |  |  | MIC (S. aureaus, 209P): ≤ 0.003 µg/mL; MIC (S. aureus, 870307): 0.1 µg/mL (≈ 0.24 µM); MIC (S. epidermidis, 56500): 0.006 µg/mL (≈ 0.0144 µM); MIC (S. flexneli, 2A 5503): ≤ 0.003 µg/mL; MIC (S. pneumoniae, J24): ≤ 0.003 µg/mL; MIC (Ser. Marcescens, 10100): 0.1 µg/mL (≈ 0.24 µM); MIC [2]: 0.025 µg/mL (≈ 0.06 µM); MIC (Str. Pyogenes, G-36): 0.006 µg/mL (≈ 0.0144 µM); melting point: 197 to 202 °C (dec.)
C[C@H]1COc2c(N3C[C@H]4CC5C[C@]5(N)[C@H]4C3)c(F)cc3c(=O)c(C(=O)O)cn1c23 (stereo partly drawn) [Example 2, 10-{(1R,2R,6S)-1-Amino-4-azatricyclo[6.1.0.0^2,6]nonan-4-yl}-9-fluoro-2,3-dihydro-3-(S)-methyl-7-oxo-7H-pyrido[1.2.3-de][1,4]benzoxazine-6-carboxylic Acid] |  |  |  |  |  |  | ≦0.003 μg/ml | 0.10 (≈ 0.25 µM) | 0.025 µg/mL (≈ 0.0626 µM) | 0.20 (≈ 0.501 µM) | 0.05 (≈ 0.125 µM) | 0.20 (≈ 0.501 µM) | 0.006 µg/mL (≈ 0.015 µM) | 0.20 (≈ 0.501 µM) | 0.025 µg/mL (≈ 0.0626 µM) | 0.006 µg/mL (≈ 0.015 µM) | 0.013 µg/mL (≈ 0.0325 µM) | 0.05 (≈ 0.125 µM) | 0.05 (≈ 0.125 µM) | 0.013 µg/mL (≈ 0.0325 µM) | 
COc1c(N2CC3CC4CC4(N)C3C2)c(F)cc2c(=O)c(C(=O)O)cn([C@@H]3C[C@@H]3F)c12 (stereo partly drawn) [Example 5, 7-{1-Amino-4-azatricyclo[6.1.0.0^2,6]nonan-4-yl}-6-fluoro-1-[2-(S)-fluoro-1-(R)-cyclopropyl]-1,4-dihydro-8-methoxy-4-oxoquinoline-3-carboxylic Acid] | ≤ 0.003 | ≤ 0.003 | 0.006 (≈ 0.0139 µM) | 0.1 (≈ 0.232 µM) | 0.05 (≈ 0.116 µM) | 0.05 (≈ 0.116 µM) |  |  |  |  |  |  |  |  |  |  |  |  |  |  | MIC (S. aureaus, 209P): ≤ 0.003 µg/mL; MIC (S. aureus, 870307): 0.013 µg/mL (≈ 0.0301 µM); MIC (S. epidermidis, 56500): ≤ 0.003 µg/mL; MIC (S. flexneli, 2A 5503): ≤ 0.003 µg/mL; MIC (S. pneumoniae, J24): ≤ 0.003 µg/mL; MIC (Ser. Marcescens, 10100): 0.05 µg/mL (≈ 0.116 µM); MIC [2]: 0.025 µg/mL (≈ 0.0579 µM); MIC (Str. Pyogenes, G-36): ≤ 0.003 µg/mL; melting point: 146 to 159 °C (dec.)
Cc1c(N2CC3CC4CC4(N)C3C2)c(F)c(N)c2c(=O)c(C(=O)O)cn([C@@H]3C[C@@H]3F)c12 (stereo partly drawn) [Example 6, 5-Amino-7-{1-amino-4-azatricyclo[6.1.0.0^2,6]nonan-4-yl}-6-fluoro-1-[2-(S)-fluoro-1-(R)-cyclopropyl]-1,4-dihydro-8-methyl-4-oxoquinoline-4-carboxylic Acid] |  |  |  |  |  |  | ≦0.003 μg/ml | 0.025 (≈ 0.0581 µM) | 0.025 µg/mL (≈ 0.0581 µM) | 0.10 (≈ 0.232 µM) | 0.025 (≈ 0.0581 µM) | 0.025 (≈ 0.0581 µM) | ≦0.003 μg/ml | 0.05 (≈ 0.116 µM) | ≦0.003 μg/ml | ≦0.003 μg/ml | ≦0.003 μg/ml | 0.05 (≈ 0.116 µM) | 0.013 (≈ 0.0302 µM) | ≦0.003 μg/ml | 
Cc1c(N2CC3CC4CC4(N)C3C2)c(F)cc2c(=O)c(C(=O)O)cn([C@@H]3C[C@@H]3F)c12 (stereo partly drawn) [Example 7, 7-(1-Amino-4-azabicyclo[6.1.0.0^2,6]nonan-4-yl)-6-fluoro-1-[2-(S)-fluoro-1-(R)-cyclopropyl]-8-methyl-1,4-dihydro-4-oxoquinoline-3-carboxylic Acid] |  |  |  |  |  |  | ≦0.003 μg/ml | 0.013 (≈ 0.0313 µM) | ≦0.003 μg/ml | 0.05 (≈ 0.12 µM) | 0.025 (≈ 0.0602 µM) | 0.025 (≈ 0.0602 µM) | ≦0.003 μg/ml | 0.013 (≈ 0.0313 µM) | ≦0.003 μg/ml | ≦0.003 μg/ml | ≦0.003 μg/ml | 0.025 (≈ 0.0602 µM) | 0.013 (≈ 0.0313 µM) | ≦0.003 μg/ml | 
